Data reported in PMC9917560, “Design, Synthesis and Antimicrobial Evaluation of New N-(1-Hydroxy-1,3-dihydrobenzo[c][1,2]oxaborol-6-yl)(hetero)aryl-2-carboxamides as Potential Inhibitors of Mycobacterial Leucyl-tRNA Synthetase” (International Journal of Molecular Sciences, 2023).
Values after ≈ are worked out from the molar mass of the structure shown. Like-named read-outs stand apart in the source and are kept apart here.

Legend:
[1] = system: Candida parapsilosis CCM 8260 (ATCC 22019); experiment: Antifungal microdilution broth (EUCAST); assay type: cell-based; conditions: Lodderomyces parapsilosis, read-out: MIC Candida parapsilosis
[2] = system: Staphylococcus aureus subsp. aureus CCM 4223 (ATCC 29213); experiment: Antibacterial microdilution broth (EUCAST); assay type: cell-based; conditions: read-out: MIC Staphylococcus aureus subsp. aureus
HepG2 cell line = experiment: Cytotoxicity screening, CellTiter 96 assay; conditions: Homo sapiens, HepG2, 24 h, read-out: IC50 HepG2
[3] = system: Staphylococcus epidermidis CCM 4418 (ATCC 12228); experiment: Antibacterial microdilution broth (EUCAST); assay type: cell-based; conditions: read-out: MIC Staphylococcus epidermidis
[4] = system: Mycolicibacterium aurum DSM 43,999 (ATCC 23366); experiment: Antimycobacterial microdilution (resazurin) vs M. aurum; assay type: cell-based; conditions: Middlebrook 7H9, resazurin, read-out: MIC M. aurum
[5] = system: Mycobacterium tuberculosis H37Rv CNCTC My 331/88 (ATCC 27294); experiment: Microplate Alamar Blue assay vs Mtb H37Rv; assay type: cell-based; conditions: Mycobacterium tuberculosis
[6] = system: Enterococcus faecalis CCM 4224 (ATCC 29212); experiment: Antibacterial microdilution broth (EUCAST); assay type: cell-based; conditions: read-out: MIC Enterococcus faecalis
[7] = system: Escherichia coli CCM 3954 (ATCC 25922); experiment: Antibacterial microdilution broth (EUCAST); assay type: cell-based; conditions: Escherichia coli, read-out: MIC Escherichia coli
[8] = system: Lichtheimia corymbifera CCM 8077; experiment: Antifungal microdilution broth (EUCAST); assay type: cell-based; conditions: Lichtheimia corymbifera, read-out: MIC Lichtheimia corymbifera
[9] = system: Candida tropicalis CCM 8264 (ATCC 750); experiment: Antifungal microdilution broth (EUCAST); assay type: cell-based; conditions: read-out: MIC Candida tropicalis
[10] = system: methicillin-resistant Staphylococcus aureus subsp. aureus (MRSA) CCM 4750 (ATCC 43300); experiment: microbe, parasite or virus in culture; assay type: cell-based; conditions: read-out: MIC Methicillin-resistant Staphylococcus aureus subsp. aureus
[11] = system: Aspergillus flavus CCM 8363; experiment: Antifungal microdilution broth (EUCAST); assay type: cell-based; conditions: Aspergillus flavus, read-out: MIC Aspergillus flavus
[12] = system: Mycobacterium tuberculosis H37Ra ITM-M006710 (ATCC 9431); experiment: Antimycobacterial microdilution (resazurin) vs Mtb H37Ra; assay type: cell-based
[13] = system: Trichophyton interdigitale CCM 8377 (ATCC 9533); experiment: Antifungal microdilution broth (EUCAST); assay type: cell-based; conditions: Trichophyton interdigitale, read-out: MIC Trichophyton interdigitale
[14] = system: Mycolicibacterium smegmatis DSM 43,465 (ATCC 607); experiment: Antimycobacterial microdilution (resazurin) vs M. smegmatis; assay type: cell-based; conditions: Middlebrook 7H9, resazurin, read-out: MIC M. smeg.
[15] = system: Candida krusei CCM 8271 (ATCC 6258); experiment: Antifungal microdilution broth (EUCAST); assay type: cell-based; conditions: Pichia kudriavzevii, read-out: MIC Candida krusei
[16] = system: Mycobacterium avium DSM 44,156 (ATCC 25291); experiment: Antimycobacterial microdilution (resazurin) vs M. avium; assay type: cell-based; conditions: Middlebrook 7H9, resazurin, read-out: MIC M. avium
[17] = system: Klebsiella pneumoniae CCM 4415 (ATCC 10031); experiment: Antibacterial microdilution broth (EUCAST); assay type: cell-based; conditions: Klebsiella pneumoniae, read-out: MIC Klebsiella pneumoniae
[18] = system: Candida albicans CCM 8320 (ATCC 24433); experiment: Antifungal microdilution broth (EUCAST); assay type: cell-based; conditions: Candida albicans, read-out: MIC Candida albicans
[19] = system: Mycobacterium kansasii DSM 44,162 (ATCC 12478); experiment: Antimycobacterial microdilution (resazurin) vs M. kansasii; assay type: cell-based; conditions: read-out: MIC M. kansasii
[20] = system: Aspergillus fumigatus ATCC 204305; experiment: Antifungal microdilution broth (EUCAST); assay type: cell-based; conditions: Aspergillus fumigatus, read-out: MIC Aspergillus fumigatus
[21] = system: Acinetobacter baumannii DSM 30007 (ATCC 19606); experiment: Antibacterial microdilution broth (EUCAST); assay type: cell-based; conditions: read-out: MIC Acinetobacter baumannii
[22] = system: Pseudomonas aeruginosa CCM 3955 (ATCC 27853); experiment: Antibacterial microdilution broth (EUCAST); assay type: cell-based; conditions: read-out: MIC Pseudomonas aeruginosa
Mtb laboratory ID MATI = assay type: cell-based, Mycobacterium tuberculosis; conditions: for Susceptibility: CLSI breakpoints 2021
Mtb laboratory ID IZAK = assay type: cell-based, Mycobacterium tuberculosis; conditions: for Susceptibility: CLSI breakpoints 2020
[23] = Middlebrook 7H9, resazurin, recalculated from µg/mL, read-out: MIC Mtb H37Ra

O=C(Nc1ccc2c(c1)B(O)OC2)c1nc2ccccc2[nH]c1=O [Compound 18, N-(1-hydroxy-1,3-dihydrobenzo[c][1,2]oxaborol-6-yl)-3-oxo-3,4-dihydroquinoxaline-2-carboxamide]
MIC ([1]; 24h incubation): > 125 µM
MIC ([1]; 48h incubation): > 125 µM
MIC ([2]; 24h incubation): > 500 µM
MIC ([2]; 48h incubation): > 500 µM
IC50 (HepG2 cell line): 244 µM
MIC ([3]; 24h incubation): > 500 µM
MIC ([3]; 48h incubation): > 500 µM
MIC [4]: 24.3 µM (≈ 7.81 µg/mL)
MIC ([5]; pH 6.6, read-out: MIC Mtb H37Rv, MABA, Middlebrook 7H9 pH 6.6, recalculated from µg/mL): > 311 µM
MIC ([6]; 24h incubation): > 500 µM
MIC ([6]; 48h incubation): > 500 µM
MIC ([7]; 24h incubation): > 500 µM
MIC ([7]; 48h incubation): > 500 µM
MIC ([8]; CCM8077, 24h incubation): > 125 µM
MIC ([8]; CCM8077, 48h incubation): > 125 µM
MIC ([9]; 24h incubation): > 125 µM
MIC ([9]; 48h incubation): > 125 µM
MIC ([10]; 24 h): > 500 µM
MIC ([10]; 48 h): > 500 µM
MIC ([11]; CCM8363, 24h incubation): > 125 µM
MIC ([11]; CCM8363, 48h incubation): > 125 µM
MIC ([12]; read-out: MIC Mtb H37Ra, Middlebrook 7H9, resazurin, recalculated from µg/mL): > 1850 µM
MIC ([13]; 72h incubation): > 125 µM
MIC ([13]; 120h incubation): > 125 µM
MIC [14]: 24.3 µM (≈ 7.81 µg/mL)
MIC ([15]; 24h incubation): > 125 µM
MIC ([15]; 48h incubation): > 125 µM
MIC ([16]; Mycobacterium avium): 48.7 µM (≈ 15.6 µg/mL)
MIC ([17]; 24h incubation): > 500 µM
MIC ([17]; 48h incubation): > 500 µM
MIC ([18]; 24h incubation): > 125 µM
MIC ([18]; 48h incubation): > 125 µM
melting point: 348.9 to 350.2 °C (dec.)
MIC [19]: > 1850 µM
MIC ([20]; ATCC204305, 24h incubation): > 125 µM
MIC ([20]; ATCC204305, 48h incubation): > 125 µM
MIC ([21]; 24h incubation): > 500 µM
MIC ([21]; 48h incubation): > 500 µM
MIC ([22]; 24h incubation): > 500 µM
MIC ([22]; 48h incubation): > 500 µM

O=C(Nc1ccc2c(c1)B(O)OC2)c1ccc2ccccc2n1 [Compound 19, N-(1-hydroxy-1,3-dihydrobenzo[c][1,2]oxaborol-6-yl)quinoline-2-carboxamide]
MIC ([1]; 24 h): > 125 µM
MIC ([1]; 48 h): > 125 µM
MIC ([2]; 24 h): 125 µM (≈ 38 µg/mL)
MIC ([2]; 48 h): 125 µM (≈ 38 µg/mL)
IC50 (HepG2 cell line): 467 µM
MIC ([3]; 24 h): > 125 µM
MIC ([3]; 48 h): > 125 µM
MIC [4]: 25.7 µM (≈ 7.81 µg/mL)
MIC ([5]; pH 6.6, MABA, Middlebrook 7H9 pH 6.6, recalculated from µg/mL, read-out: MIC Mtb H37Rv): 82.2 µM (≈ 25 µg/mL)
MIC ([6]; 24 h): > 125 µM
MIC ([6]; 48 h): > 125 µM
MIC ([7]; 24 h): > 125 µM
MIC ([7]; 48 h): > 125 µM
MIC ([8]; CCM8077, 24 h): > 125 µM
MIC ([8]; CCM8077, 48 h): > 125 µM
MIC ([9]; 24 h): > 125 µM
MIC ([9]; 48 h): > 125 µM
MIC ([10]; 24 h): > 125 µM
MIC ([10]; 48 h): > 125 µM
MIC ([11]; CCM8363, 24 h): > 125 µM
MIC ([11]; CCM8363, 48 h): > 125 µM
MIC [12, 23]: 206 µM (≈ 62.5 µg/mL)
MIC ([13]; 72 h): > 125 µM
MIC ([13]; 120 h): > 125 µM
MIC [14]: 25.7 µM (≈ 7.81 µg/mL)
MIC ([15]; 24 h): > 125 µM
MIC ([15]; 48 h): > 125 µM
MIC [16]: 25.68 µM (≈ 7.81 µg/mL)
MIC ([16]; Mycobacterium avium): 25.6 µM (≈ 7.78 µg/mL)
MIC ([17]; 24 h): > 125 µM
MIC ([17]; 48 h): > 125 µM
MIC ([18]; 24 h): > 125 µM
MIC ([18]; 48 h): > 125 µM
melting point: 201 to 203.1 °C
MIC [19]: 206 µM (≈ 62.5 µg/mL)
MIC ([20]; ATCC204305, 24 h): > 125 µM
MIC ([20]; ATCC204305, 48 h): > 125 µM
MIC ([21]; 24 h): > 125 µM
MIC ([21]; 48 h): > 125 µM
MIC ([22]; 24 h): > 125 µM
MIC ([22]; 48 h): > 125 µM

NC(=O)c1cnccn1 [PZA, pyrazinamide]
Concentration (Mtb laboratory ID MATI; strain MATI, CLSI 2021): >1039.70 µM
Susceptibility (Mtb laboratory ID MATI; strain MATI): resistant
Concentration (Mtb laboratory ID IZAK; strain IZAK, CLSI 2020): >129.96 µM
Susceptibility (Mtb laboratory ID IZAK; strain IZAK): resistant

CO[C@H]1/C=C/O[C@@]2(C)Oc3c(C)c(O)c4c(O)c(c(/C=N/N5CCN(C)CC5)c(O)c4c3C2=O)NC(=O)/C(C)=C\C=C\[C@H](C)[C@H](O)[C@@H](C)[C@@H](O)[C@@H](C)[C@H](OC(C)=O)[C@@H]1C [RIF, rifampicin, reference compound]
MIC [4]: 0.47 µM (≈ 0.387 µg/mL)
Concentration (Mtb laboratory ID MATI): >9.72 µM
Susceptibility (Mtb laboratory ID MATI; strain MATI): resistant
MIC [12, 23]: 0.00759 µM (≈ 0.00625 µg/mL)
MIC [14]: 15.2 µM (≈ 12.5 µg/mL)
MIC ([16]; Mycobacterium avium): 0.08 µM (≈ 0.0658 µg/mL)
MIC ([19]; Middlebrook 7H9, resazurin): 0.06 µM (≈ 0.0494 µg/mL)
Concentration (Mtb laboratory ID IZAK): >9.72 µM
Susceptibility (Mtb laboratory ID IZAK; strain IZAK): resistant

[H]/N=C(/N)N[C@H]1[C@H](O)[C@@H](O)[C@H](O[C@@H]2O[C@@H](C)[C@](O)(C=O)[C@H]2O[C@@H]2O[C@@H](CO)[C@H](O)[C@@H](O)[C@@H]2NC)[C@@H](N/C(N)=N\[H])[C@@H]1O [STM, streptomycin]
Concentration (Mtb laboratory ID MATI; strain MATI, CLSI 2021): >27.51 µM
Susceptibility (Mtb laboratory ID MATI; strain MATI): resistant
Concentration (Mtb laboratory ID IZAK; strain IZAK, CLSI 2020): 6.88 µM
Susceptibility (Mtb laboratory ID IZAK; strain IZAK): resistant
